Results as given in patent US20060004019A1, “Steroid sparing agents and methods of using same” (priority 2004, published 2006).

Legend:
[1] = test system: rat cardiac allografts; assay: Rat cardiac allograft study, Allograft Study 2 (Table 20); conditions: for percent of surviving grafts within a group / number of surviving grafts within each group: s.c., GG5/3 3 mg/kg, compounds 30 mg/kg;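 as to all read-outs here: lewis x Brown Norway F1 hearts grafted abdominally into male Lewis rats, palpated daily, rejection meaning complete loss of heartbeat, day 0 being surgery day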
[2] = test system: rat cardiac allografts; assay: Rat cardiac allograft study, Allograft Study 4 (Table 22); conditions: s.c., GG5/3 3 mg/kg, compounds 30 mg/kg;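 also: heterotopic abdominal heart transplants from Lewis × Brown Norway F1 donors into male Lewis rats, graft beating checked daily by flank palpation, rejection defined as complete stop of heartbeat, transplant day 0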

For `CC(C)OC(=O)[C@H](Cc1ccc(OC(=O)N(C)C)cc1)NC(=O)[C@H]1N(S(=O)(=O)c2cnn(C)c2)CSC1(C)C`, the “percent of surviving grafts within a group” value (“percent” below) ([1]; Day 0) was 100%, the “percent” value ([1]; Day 1) was 100% and the “percent” value ([1]; Day 2) was 100%. The “percent” value ([1]; Day 3) was 100%, the “percent” value ([1]; Day 4) was 100% and the “percent” value ([1]; Day 5) was 100%. The “percent” value ([1]; Day 6) was 100%, the “percent” value ([1]; Day 7) was 100% and the “percent” value ([1]; Day 8) was 100%. For the same compound, the “percent” value ([1]; Day 9) was 100%, the “percent” value ([1]; Day 10) was 83% and the “percent” value ([1]; Day 11) was 50%. For the same compound, the “percent” value ([1]; Day 12) was 50%, the “percent” value ([1]; Day 13) was 33% and the “percent” value ([1]; Day 14) was 16%. For the same compound, the “percent” value ([1]; Day 15) was 16% and the “percent” value ([1]; Day 16) was 0%.
In the case of `CC(C)OC(=O)[C@H](Cc1ccc(OC(=O)N2CCN(C)CC2)cc1)NC(=O)[C@H]1N(S(=O)(=O)c2cccnc2)CSC1(C)C`, the “percent” value ([2]; day 0) is reported as 100%, the “percent” value ([2]; day 1) is reported as 100% and the “percent” value ([2]; day 2) is reported as 100%. For the same compound, the “percent” value ([2]; day 3) was 100%, the “percent” value ([2]; day 4) was 100% and the “percent” value ([2]; day 5) was 100%. For the same compound, the “percent” value ([2]; day 6) was 100%, the “percent” value ([2]; day 7) was 100% and the “percent” value ([2]; day 8) was 100%. For the same compound, the “percent” value ([2]; day 9) was 83%, the “percent” value ([2]; day 10) was 66% and the “percent” value ([2]; day 11) was 66%. For the same compound, the “percent” value ([2]; day 12) was 66%, the “percent” value ([2]; day 13) was 66% and the “percent” value ([2]; day 14) was 66%. For the same compound, the “percent” value ([2]; day 15) was 66%, the “percent” value ([2]; day 16) was 50% and the “percent” value ([2]; day 17) was 50%. The “percent” value ([2]; day 18) was 50%, the “percent” value ([2]; day 19) was 50% and the “number of surviving grafts” value ([2]; day 20) was 2. The “percent” value ([2]; day 20) was 33%, the “number of surviving grafts” value ([2]; day 21) was 2 and the “percent” value ([2]; day 21) was 33%. The “number of surviving grafts” value ([2]; day 22) was 2, the “percent” value ([2]; day 22) was 33% and the “number of surviving grafts” value ([2]; day 23) was 2. For the same compound, the “percent” value ([2]; day 23) was 33%, the “number of surviving grafts” value ([2]; day 24) was 2 and the “percent” value ([2]; day 24) was 33%. The “number of surviving grafts” value ([2]; day 25) was 2, the “percent” value ([2]; day 25) was 33% and the “number of surviving grafts” value ([2]; day 26) was 2. For the same compound, the “percent” value ([2]; day 26) was 33%, the “number of surviving grafts” value ([2]; day 27) was 2 and the “percent” value ([2]; day 27) was 33%. For the same compound, the “number of surviving grafts” value ([2]; day 28) was 2, the “percent” value ([2]; day 28) was 33% and the “number of surviving grafts” value ([2]; day 29) was 2. The “percent” value ([2]; day 29) was 33%, the “number of surviving grafts” value ([2]; day 30) was 2 and the “percent” value ([2]; day 30) was 33%. The “number of surviving grafts” value ([2]; day 31) was 1, the “percent” value ([2]; day 31) was 16% and the “number of surviving grafts” value ([2]; day 32) was 1. For the same compound, the “percent” value ([2]; day 32) was 16%, the “number of surviving grafts” value ([2]; day 33) was 1 and the “percent” value ([2]; day 33) was 16%. For the same compound, the “number of surviving grafts” value ([2]; day 34) was 1, the “percent” value ([2]; day 34) was 16% and the “number of surviving grafts” value ([2]; day 35) was 1. For the same compound, the “percent” value ([2]; day 35) was 16%, the “number of surviving grafts” value ([2]; day 36) was 1 and the “percent” value ([2]; day 36) was 16%. For the same compound, the “number of surviving grafts” value ([2]; day 37) was 1, the “percent” value ([2]; day 37) was 16% and the “number of surviving grafts” value ([2]; day 38) was 1. The “percent” value ([2]; day 38) was 16%, the “number of surviving grafts” value ([2]; day 39) was 1 and the “percent” value ([2]; day 39) was 16%. For the same compound, the “number of surviving grafts” value ([2]; day 40) was 1, the “percent” value ([2]; day 40) was 16% and the “number of surviving grafts” value ([2]; day 41) was 1. The “percent” value ([2]; day 41) was 16%, the “number of surviving grafts” value ([2]; day 42) was 0 and the “percent” value ([2]; day 42) was 0%.
`CC(C)OC(=O)[C@H](Cc1ccc(OC(=O)N(C)C)cc1)NC(=O)[C@H]1N(S(=O)(=O)c2cccnc2)CSC1(C)C` [listing 1 of 2 here] was tested, and the “number of surviving grafts within each group” value ([1]; Day 0) was 6, the “number of surviving grafts within each group” value ([1]; Day 1) was 6 and the “number of surviving grafts within each group” value ([1]; Day 2) was 6. For the same compound, the “number of surviving grafts within each group” value ([1]; Day 3) was 6, the “number of surviving grafts within each group” value ([1]; Day 4) was 6 and the “number of surviving grafts within each group” value ([1]; Day 5) was 6. For the same compound, the “number of surviving grafts within each group” value ([1]; Day 6) was 6, the “number of surviving grafts within each group” value ([1]; Day 7) was 6 and the “number of surviving grafts within each group” value ([1]; Day 8) was 4. For the same compound, the “number of surviving grafts within each group” value ([1]; Day 9) was 2, the “number of surviving grafts within each group” value ([1]; Day 10) was 2 and the “number of surviving grafts within each group” value ([1]; Day 11) was 1. For the same compound, the “number of surviving grafts within each group” value ([1]; Day 12) was 0, the “number of surviving grafts within each group” value ([1]; Day 13) was 0 and the “number of surviving grafts within each group” value ([1]; Day 14) was 0. For the same compound, the “number of surviving grafts within each group” value ([1]; Day 15) was 0 and the “number of surviving grafts within each group” value ([1]; Day 16) was 0.
In the case of `CC(C)OC(=O)[C@H](Cc1ccc(OC(=O)N(C)C)cc1)NC(=O)[C@H]1N(S(=O)(=O)c2cccnc2)CSC1(C)C` [listing 2 of 2 here], the “percent” value ([1]; Day 0) is reported as 100%, the “percent” value ([1]; Day 1) is reported as 100% and the “percent” value ([1]; Day 2) is reported as 100%. For the same compound, the “percent” value ([1]; Day 3) was 100%, the “percent” value ([1]; Day 4) was 100% and the “percent” value ([1]; Day 5) was 100%. The “percent” value ([1]; Day 6) was 100%, the “percent” value ([1]; Day 7) was 100% and the “percent” value ([1]; Day 8) was 66%. For the same compound, the “percent” value ([1]; Day 9) was 50%, the “percent” value ([1]; Day 10) was 50% and the “percent” value ([1]; Day 11) was 16%. For the same compound, the “percent” value ([1]; Day 12) was 0%, the “percent” value ([1]; Day 13) was 0% and the “percent” value ([1]; Day 14) was 0%. For the same compound, the “percent” value ([1]; Day 15) was 0% and the “percent” value ([1]; Day 16) was 0%.
`CC(C)OC(=O)[C@H](Cc1ccc(OC(=O)N(C)C)cc1)NC(=O)[C@H]1N(S(=O)(=O)c2cccnc2)CSC1(C)C` [Example 173] was tested, and the “day by which all grafts rejected” value ([1]; 30 mg/kg s.c. every 12 h, day 0 through day +10) was at most 12 days and the “graft survival (in words)” value ([1]; compounds 30 mg/kg s.c. every 12 h, GG5/3 3 mg/kg s.c. day 0, +3, +7, +10) was “prolonged graft survival for a short period”.
